These results are taken from patent US11111222B2, “Hydroxyeicosatrienoic acid compounds and their use as therapeutic agents” (THE REGENTS OF THE UNIVERSITY OF MICHIGAN, priority 2016, dated 2021).

The test system of one series is Rap1. Description: Rap1 activation in washed platelets (Rap1-GTP pull-down, Western blot). Particulars: 25 μM 12-HETrE, PAR4-AP stimulated, vs vehicle. Format: cell-based, mouse. How it is done:
Following 1 minute of stimulation platelets were lysed with 2× platelet lysis buffer (100 mM Tris HCl, pH 7.4, 150 mM NaCl, 2% IGEPAL, 1% sodium deoxycholate, and 0.05% SDS) containing protease and phosphatase inhibitors. The cytoskeleton was pelleted by centrifugation at 14000×g for 7 minutes at 4° C. Active Rap1 was selectively captured from the supernatant by incubating GST-tagged Rap1 binding domain of RalGDS conjugated to glutathione sepharose beads for one hour on a nutator at 4° C. The beads were then washed 5 times with IP buffer and resuspended in 2× Laemmeli reducing buffer (62.5 mM Tris-HCl, pH 6.8, 2% SDS, 25% glycerol, 0.01% bromophenol blue, 5% β-mercaptoethanol). The samples were boiled for 10 minutes and then loaded onto a 10% SDS-polyacrylamide gel electrophoresis (PAGE) gel. Western blots were performed using a Rap1 antibody and quantified with a LI-COR imager.

Series [1] concerns washed platelets from WT or 12-LOX−/− mice. Put plainly: Platelet aggregation, washed murine platelets (lumi-aggregometer). Format: cell-based, mouse. As to conditions: 25 μM 12-LOX oxylipin, 10 min, vs vehicle. As for the experimental part:
The 12-LOX null C57BL/6 (12-LOX^−/−) mice were generated using homozygous breeding pairs and wild-type (WT) C57BL/6 ([…]) mice were purchased (Jackson Laboratory). […] Mouse blood was diluted with equal volumes of Tyrode's buffer (10 mM HEPES, 11.9 mM sodium bicarbonate, 127.2 mM sodium chloride, 5 mM potassium chloride, 0.4 mM sodium phosphate monobasic, 1 mM magnesium chloride, and 5 mM D-glucose) and centrifuged at 200×g. Platelet-rich-plasma (PRP) was transferred to a tube containing 10× acid citrate dextrose solution (ACD) (2.5% sodium citrate, 1.5% citric acid, and 2% D-glucose) and apyrase (0.02 U/mL), and centrifuged at 2000×g. Platelet count was adjusted to 3×10^8 platelets/mL with Tyrode's buffer for all studies.
A lumi-aggregometer (Chrono-log model 700D) was used to measure platelet aggregation under stirring conditions (1100 rpm) at 37° C. Prior to agonist stimulation platelets were incubated with a preselected PUFA or oxylipin for 10 minutes.

A short description of series [2]: Cremaster muscle arterial puncture model of hemostasis. Format: in vivo, mouse. Particulars: laser puncture of cremaster arteriole; vs control treated mice. As for the experimental part: Mice were anesthetized, tail vein injected with anti-platelet and anti-fibrin antibodies and their cremaster muscle arterioles were prepared as described above. A high intensity laser pulse from the laser ablation system was used to puncture a hole in the cremaster muscle arteriole wall as visualized by red blood cell (RBC) leakage from the vessel. Images of RBCs leakage and hemostatic plug formation were acquired in real-time with a fluorescent microscope as described above. Arterial bleeding time was defined as the time from laser pulse injury until cessation of RBC leakage from the vessel.

Another series is described as follows: Tail bleeding assay. It is filed as in vivo, mouse. As to conditions: mice retro-orbitally injected; 5 mm tail tip excised; vs control. As for the experimental part: Mice were anesthetized with ketamine/xyzaline and placed on a heating pad in prone position, the tip of the tail (5 mm) was excised with a sterile scalpel, and the tails were immediately immersed into isotonic saline solution (0.9%) warmed to 37° C. Bleeding time was assessed until cessation of blood flow from the tail for 1 minute.

A further series has as its system Gαs. Put plainly: [35S]GTPγS binding to immunoprecipitated Gαs, platelet membranes. Format: biochemical. As to conditions: 25 μM; human platelet membranes; vs DMSO. How it is done: PRP was isolated from whole blood as described above and then incubated with 1 mM aspirin for 1 hour at 37° C. Platelets were pelleted at 2000 g for 10 min in the presence of 10×ACD and apyrase. The pelleted platelets were washed with Tyrode's and centrifuged at 2000×g with 10×ACD for 10 min at room temperature. The platelets were flash frozen with liquid nitrogen and then resuspended in cold detergent-free TME buffer (50 mM Tris-HCl, pH 7.5, 20 mM MgCl2, 2 mM EDTA, and 100 mM NaCl) with 1 μM GDP and protease and phosphatase inhibitors to lyse the platelets. The lysed platelets were centrifuged at 1500 g at 4° C. for 5 min. The supernatant was collected and centrifuged at 100,000×g for 30 min at 4° C. The pelleted membranes were resuspended in TME buffer with 1 μM GDP and stored at −80° C. prior to use. Fatty acid metabolites, agonists, or DMSO and [^35S]GTPγS (10 nM) were added to platelet membranes (60 μg/reaction) on ice, and the tubes were immediately transferred to a 30° C. water bath shaker for 20 min. The reaction was terminated by the addition of ice-cold IP buffer (50 mM Tris-HCl, pH 7.5, 20 mM MgCl2, 150 mM NaCl, 0.5% Nonidet P-40, 0.33% aprotinin, 0.1 mM GDP, and 0.1 mM GTP). The samples were pre-cleared with Protein A agarose beads and normal rabbit IgG for 30 min on a nutator at 4° C. and then aliquoted equally into two tubes containing either normal rabbit IgG or a Gs antibody that had been conjugated to Protein A agarose beads. The samples were incubated on a nutator for 1 hr at 4° C. and washed 4 times with IP buffer and 1 time in TME buffer. The samples were boiled in 0.5% SDS for 30 sec, and the supernatants were collected following brief centrifugation. The supernatants were analyzed in 8 mL of scintillation fluid. The background counts for the normal rabbit IgG (50-200 cpm) for each sample were subtracted from the anti-Gs immunoprecipitated samples prior to analyzing the data.

A further series deals with washed human platelets. Put plainly: Human platelet aggregation after pre-treatment with adenylyl cyclase inhibitor SQ 22536. It is filed as cell-based. Particulars: platelets pre-treated with SQ 22536 (25 μM, 20 min); 12-HETrE 7.5 to 25 μM, 1 min; EC80 PAR4-AP. How it is done: Blood from healthy donors was collected into vacutainers containing buffered sodium citrate, and platelets were isolated by serial centrifugation as described above for mouse platelets. The platelets were resuspended in Tyrode's buffer at 3×10^8 platelets/mL, unless otherwise specified.
A lumi-aggregometer (Chrono-log model 700D) was used to measure platelet aggregation under stirring conditions (1100 rpm) at 37° C. […]

In the case of `CCCCC/C=C\C[C@H](O)/C=C/C=C\CCCCCCC(=O)O` [12(S)-HETrE, 12(S)-hydroxy-8Z,10E,14Z-eicosatrienoic acid], the “Rap1 activation (Rap1-GTP)” value in the series on Rap1 (12-LOX−/− mouse platelets) and in the series on Rap1 (WT mouse platelets) was “suppressed Rap1 activation” throughout. Besides, the platelet aggregation entry is given as “inhibited the aggregation” in series [1] (12-LOX−/− mouse platelets, EC80 PAR4-AP (200 μM) or collagen (2 or 5 μg/mL)) and “inhibited the aggregation” in series [1] (WT mouse platelets, EC80 PAR4-AP (100 μM) or collagen (5 μg/mL)). The “duration of RBC leakage (arterial bleeding time)” value in series [2] is “No significant difference in the duration of RBC leakage”. Moreover, the tail bleeding time result in “Tail bleeding assay” is given as “no significant difference in tail bleeding time”. Besides, the “[35S]GTPγS binding to immunoprecipitated Gαs” value in the series with Gαs is “significant increase in [^35S]GTPγS binding”. The PAR4-AP-mediated platelet aggregation result with washed human platelets is reported as “unable to inhibit PAR4-AP-mediated platelet aggregation”.
